Reference: the NIST ThermoML archive (doi:10.1016/j.tca.2018.03.002)
± gives the expanded uncertainty stated by the source.

Conditions: Crystal; DTA

Normal melting temperature [°C]	Compound
16.80 ± 6	CC(=O)O [acetic acid]
-4.50 ± 4	CCCC(=O)O [butanoic acid]
9.70 ± 8	O=CO [formic acid]
-21.20 ± 2	CCC(=O)O [propanoic acid]
0.00 ± 2	O [water]
